Key:
[1] = test system: contact hypersensitivity reactions of skin tissue; conditions: topical
From the text: Rapamycin (0.01%), cyclosporine (0.1%), and rapamycin-cyclosporine (0.01%/0.1%) combined formulations, were applied in a trinary drug delivery system consisting of 1,2 propanediol, diethylene glycol monoethyl ether, and a glyceryl caprylate/caprate polyethylene glycol complex.
To further elaborate, rapamycin (0.001%), cyclosporine (0.01%), and rapamycin-cyclosporine (0.001%/0.01%) combined formulations, were applied in a trinary drug delivery system consisting of 1,2 propanediol, diethylene glycol monoethyl ether, and a glyceryl caprylate/caprate polyethylene glycol complex (6:3:1).

[2] = test system: mixed lymphocyte responses; assay: In vitro site-specific mixed lymphocyte response; format: cell-based; conditions: FIGS. 14 A and B

With `CO[C@H]1C[C@@H]2CC[C@@H](C)[C@@](O)(O2)C(=O)C(=O)N2CCCC[C@H]2C(=O)O[C@H]([C@H](C)C[C@@H]2CC[C@@H](O)[C@H](OC)C2)CC(=O)[C@H](C)/C=C(\C)[C@@H](O)[C@@H](OC)C(=O)[C@H](C)C[C@H](C)/C=C/C=C/C=C/1C` [Rapamycin, rapamycin] the “efficacy by local inflammatory immune phase (early versus late)” value ([1]; contact dermatitis model) was “particularly efficacious during the late local inflammatory-immune phase”, the “site-specific immune suppression in contact dermatitis at low concentrations” value ([1]; rapamycin 0.001%, cyclosporine 0.01%, combination 0.001%/0.01%, trinary vehicle (6:3:1)) was “provided surprising site-specific immune suppression” and the “local inflammatory/immune response in contact hypersensitivity” value ([1]; rapamycin 0.01%, cyclosporine 0.1%, combination 0.01%/0.1%, 1,2 propanediol/Transcutol/Labrasol vehicle, FIG. 13B) was “inhibited local inflammatory/immune responses”. The “site-specific immune suppression of primary or activated cellular immune responses” value ([2]; agent alone) was “provided potent site-specific immune suppression” and the “efficacy by inflammatory immune phase (early versus late)” value ([2]; local application) was “surprisingly efficacious with local application during both late and early inflammatory immune phases”.

From US5540931A, “Methods for inducing site-specific immunosuppression and compositions of site specific immunosuppressants” (Hewitt; Charles W., priority 1994, dated 1996)
